# According to US20060069132A1, “Azolecarboxamide herbicides” (priority 2004, published 2006):
# Tests used:
# blackgrass = assay: Test B postemergence herbicide test; format: in vivo, Alopecurus myosuroides; settings: postemergence, visual rating, scale 0 (no effect) to 100 (complete control)
# In short: (§1)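 Postemergence plants were sprayed with formulated test chemicals at 2 to 18 cm height (1- to 4-leaf stage); paddy species were grown to the 2-leaf stage. After 13 to 15 days in a greenhouse, injury was rated visually against untreated controls on a 0–100 scale (0 = no effect, 100 = complete control).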
# rice [1] = assay: Test B pre-/postemergence herbicide test; format: in vivo, Oryza sativa; settings: preemergence; for Rice plant response rating (0 to 100 scale): 125 g ai/ha; for Plant response rating, Rice: 500 g ai/ha
# In short: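 Greenhouse pot assay with simultaneous preemergence (treated seed) and postemergence (2–18 cm seedlings) applications of surfactant-containing, non-phytotoxic solvent formulations. Response scored visually 13–15 days later on a 0–100 scale, 100 meaning complete control.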
# wild oat = assay: Test B postemergence herbicide test; format: in vivo, Avena fatua; settings: postemergence, visual rating, scale 0 (no effect) to 100 (complete control)
# In short: (§2)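 Each value is a visual 0–100 response rating taken against controls 13 to 15 days after treatment in the greenhouse. Plants received formulated chemical postemergence at the 1- to 4-leaf stage or, in flooded paddy, at the 2-leaf stage.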
# barnyardgrass [2] = assay: Test B pre-/postemergence herbicide test; format: in vivo, Echinochloa crus-galli; settings: for Barnyardgrass plant response rating (0 to 100 scale) / Plant response rating, Barnyardgrass: preemergence; for Barnyardgrass plant response rating: postemergence, scale 0 (no effect) to 100 (complete control)
# In short: (§3)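 Seeds were planted and treated preemergence with compounds formulated in a non-phytotoxic solvent mixture containing surfactant, while plants at the 1- to 4-leaf stage (2 to 18 cm) received postemergence sprays. Flooded paddy plants were grown to the 2-leaf stage. After 13 to 15 days in a greenhouse, injury was visually rated 0–100 against untreated controls.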
# morningglory = assay: Test B pre-/postemergence herbicide test; format: in vivo, Ipomoea coccinea; settings: for Morningglory plant response rating (0 to 100 scale) / Plant response rating, Morningglory: preemergence; for Morningglory plant response rating: postemergence, scale 0 (no effect) to 100 (complete control)
# In short: as §3
# wheat = assay: Test B postemergence herbicide test; format: in vivo, Triticum aestivum; parameters: key to Wheat plant response rating: 0 = no effect, 100 = complete control; settings: postemergence, visual rating, scale 0 (no effect) to 100 (complete control)
# In short: as §2
# Surinam grass = assay: Test B pre-/postemergence herbicide test; format: in vivo, Urochloa decumbens; settings: for Surinam Grass plant response rating (0 to 100 scale) / Plant response rating, Surinam Grass: preemergence; for Surinam Grass plant response rating: postemergence, scale 0 (no effect) to 100 (complete control)
# In short: (§4)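 Plants compared with untreated controls 13–15 days post-treatment and given a visual 0–100 injury score. Applications: preemergence to seeds; postemergence at 1- to 4-leaf (2–18 cm); paddy species flooded, 2-leaf stage. Vehicle non-phytotoxic, surfactant included.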
# [3] = system: small flower umbrella sedge; assay: Test B flooded paddy test; format: in vivo, Cyperus difformis; settings: 1000 g ai/ha, visual rating, scale 0 to 100 (0 no effect, 100 complete control), 13 to 15 days
# In short: as §1
# ducksalad = assay: Test B flooded paddy test; format: in vivo, Heteranthera limosa; settings: 1000 g ai/ha, visual rating, scale 0 to 100 (0 no effect, 100 complete control), 13 to 15 days
# In short: as §1
# giant foxtail = assay: Test B pre-/postemergence herbicide test; format: in vivo, Setaria faberi; settings: for Foxtail, Giant plant response rating (0 to 100 scale) / Plant response rating, Foxtail, Giant: preemergence; for Foxtail, Giant plant response rating: postemergence, scale 0 (no effect) to 100 (complete control)
# In short: as §4
# lambsquarters = assay: Test B pre-/postemergence herbicide test; format: in vivo, Chenopodium album; settings: for Lambsquarters plant response rating (0 to 100 scale) / Plant response rating, Lambsquarters: preemergence; for Lambsquarters plant response rating: postemergence, scale 0 (no effect) to 100 (complete control)
# In short: as §4
# barnyardgrass [4] = assay: Test B flooded paddy test; format: in vivo, Echinochloa crus-galli; settings: 1000 g ai/ha, visual rating, scale 0 to 100 (0 no effect, 100 complete control), 13 to 15 days
# In short: as §1
# cocklebur = assay: Test B pre-/postemergence herbicide test; format: in vivo, Xanthium strumarium; settings: for Cocklebur plant response rating (0 to 100 scale) / Plant response rating, Cocklebur: preemergence; for Cocklebur plant response rating: postemergence, scale 0 (no effect) to 100 (complete control)
# In short: as §3
# corn = assay: Test B pre-/postemergence herbicide test; format: in vivo, Zea mays; settings: for Corn plant response rating (0 to 100 scale) / Plant response rating, Corn: preemergence; for Corn plant response rating: postemergence, scale 0 (no effect) to 100 (complete control)
# In short: as §4
# velvetleaf = assay: Test B pre-/postemergence herbicide test; format: in vivo, Abutilon theophrasti; settings: for Velvetleaf plant response rating (0 to 100 scale) / Plant response rating, Velvetleaf: preemergence; for Velvetleaf plant response rating: postemergence, scale 0 (no effect) to 100 (complete control)
# In short: as §4
# rice [5] = assay: Test B flooded paddy test; format: in vivo, Oryza sativa; settings: 1000 g ai/ha, visual rating, scale 0 to 100 (0 no effect, 100 complete control), 13 to 15 days
# In short: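 Formulated test chemicals went onto postemergence plants measuring 2 to 18 cm, at one to four leaves. For the paddy assay, species had reached two leaves. Scoring took place 13–15 days later by eye, relative to untreated plants, using 0 for no effect up to 100 for full control.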
# large crabgrass = assay: Test B pre-/postemergence herbicide test; format: in vivo, Digitaria sanguinalis; settings: for Crabgrass, Large plant response rating (0 to 100 scale) / Plant response rating, Crabgrass, Large: preemergence; for Crabgrass, Large plant response rating: postemergence, scale 0 (no effect) to 100 (complete control)
# In short: as §4
# pigweed = assay: Test B pre-/postemergence herbicide test; format: in vivo, Amaranthus retroflexus; settings: for Pigweed plant response rating (0 to 100 scale) / Plant response rating, Pigweed: preemergence; for Pigweed plant response rating: postemergence, scale 0 (no effect) to 100 (complete control)
# In short: as §4
# [6] = 0 = no effect, 100 = complete control
# [7] = 125 g ai/ha, 0 = no effect, 100 = complete control
# [8] = 500 g ai/ha, visual rating 0-100, 0 no effect, 100 complete control
# [9] = 500 g ai/ha, visual rating, 0 = no effect, 100 = complete control
smiles,measurement,setting,value
CCN(CC)C(=O)c1cccc(NC(=O)c2nn(C(C)(C)C)cc2C(F)(F)F)c1 [Compound 169],Blackgrass plant response rating,blackgrass; 125 g ai/ha,0
same,Blackgrass plant response rating,blackgrass; 500 g ai/ha,10
same,Rice plant response rating (0 to 100 scale),rice [1]; [6],0
same,"Plant response rating, Rice","rice [1]; visual rating 0-100, 0 no effect, 100 complete control",0
same,"Oat, Wild plant response rating",wild oat; 125 g ai/ha,10
same,"Oat, Wild plant response rating",wild oat; 500 g ai/ha,10
same,Barnyardgrass plant response rating (0 to 100 scale),barnyardgrass [2]; [7],0
same,"Plant response rating, Barnyardgrass",barnyardgrass [2]; [8],10
same,Barnyardgrass plant response rating,"barnyardgrass [2]; 125 g ai/ha, visual rating",0
same,Barnyardgrass plant response rating,"barnyardgrass [2]; 500 g ai/ha, visual rating",10
same,Morningglory plant response rating (0 to 100 scale),morningglory; [7],0
same,"Plant response rating, Morningglory",morningglory; [8],10
same,Morningglory plant response rating,"morningglory; 125 g ai/ha, visual rating",20
same,Morningglory plant response rating,"morningglory; 500 g ai/ha, visual rating",70
same,Wheat plant response rating,wheat; 125 g ai/ha,0
same,Wheat plant response rating,wheat; 500 g ai/ha,0
same,Surinam Grass plant response rating (0 to 100 scale),Surinam grass; [7],0
same,"Plant response rating, Surinam Grass",Surinam grass; [8],10
same,Surinam Grass plant response rating,"Surinam grass; 125 g ai/ha, visual rating",0
same,Surinam Grass plant response rating,"Surinam grass; 500 g ai/ha, visual rating",10
same,"Sedge, Umbrella plant response rating",[3],0
same,Ducksalad plant response rating,ducksalad,0
same,"Foxtail, Giant plant response rating (0 to 100 scale)",giant foxtail; [7],0
same,"Plant response rating, Foxtail, Giant",giant foxtail; [8],10
same,"Foxtail, Giant plant response rating","giant foxtail; 125 g ai/ha, visual rating",0
same,"Foxtail, Giant plant response rating","giant foxtail; 500 g ai/ha, visual rating",0
same,Lambsquarters plant response rating (0 to 100 scale),lambsquarters; [7],0
same,"Plant response rating, Lambsquarters",lambsquarters; [8],60
same,Lambsquarters plant response rating,"lambsquarters; 125 g ai/ha, visual rating",40
same,Lambsquarters plant response rating,"lambsquarters; 500 g ai/ha, visual rating",60
same,Barnyardgrass plant response rating,barnyardgrass [4],0
same,Cocklebur plant response rating (0 to 100 scale),cocklebur; [7],0
same,"Plant response rating, Cocklebur",cocklebur; [8],0
same,Cocklebur plant response rating,"cocklebur; 125 g ai/ha, visual rating",0
same,Cocklebur plant response rating,"cocklebur; 500 g ai/ha, visual rating",0
same,Corn plant response rating (0 to 100 scale),corn; [7],0
same,"Plant response rating, Corn",corn; [8],0
same,Corn plant response rating,"corn; 125 g ai/ha, visual rating",10
same,Corn plant response rating,"corn; 500 g ai/ha, visual rating",10
same,Velvetleaf plant response rating (0 to 100 scale),velvetleaf; [7],0
same,"Plant response rating, Velvetleaf",velvetleaf; [8],0
same,Velvetleaf plant response rating,"velvetleaf; 125 g ai/ha, visual rating",0
same,Velvetleaf plant response rating,"velvetleaf; 500 g ai/ha, visual rating",0
same,Rice plant response rating,rice [5],0
same,"Crabgrass, Large plant response rating (0 to 100 scale)",large crabgrass; [7],0
same,"Plant response rating, Crabgrass, Large",large crabgrass; [8],40
same,"Crabgrass, Large plant response rating","large crabgrass; 125 g ai/ha, visual rating",10
same,"Crabgrass, Large plant response rating","large crabgrass; 500 g ai/ha, visual rating",10
same,Pigweed plant response rating (0 to 100 scale),pigweed; [7],0
same,"Plant response rating, Pigweed",pigweed; [8],100
same,Pigweed plant response rating,"pigweed; 125 g ai/ha, visual rating",20
same,Pigweed plant response rating,"pigweed; 500 g ai/ha, visual rating",40
CCN(CC)C(=O)c1cccc(NC(=O)c2nn(C(C)(C)C)cc2Br)c1 [Compound 220],Blackgrass plant response rating,blackgrass; 125 g ai/ha,0
same,Blackgrass plant response rating,blackgrass; 500 g ai/ha,0
same,Rice plant response rating (0 to 100 scale),rice [1]; [6],0
same,"Plant response rating, Rice","rice [1]; visual rating, 0 = no effect, 100 = complete control",0
same,"Oat, Wild plant response rating",wild oat; 125 g ai/ha,0
same,"Oat, Wild plant response rating",wild oat; 500 g ai/ha,10
same,Barnyardgrass plant response rating (0 to 100 scale),barnyardgrass [2]; [7],0
same,"Plant response rating, Barnyardgrass",barnyardgrass [2]; [9],0
same,Barnyardgrass plant response rating,"barnyardgrass [2]; 125 g ai/ha, visual rating",0
same,Barnyardgrass plant response rating,"barnyardgrass [2]; 500 g ai/ha, visual rating",0
same,Morningglory plant response rating (0 to 100 scale),morningglory; [7],0
same,"Plant response rating, Morningglory",morningglory; [9],0
same,Morningglory plant response rating,"morningglory; 125 g ai/ha, visual rating",0
same,Morningglory plant response rating,"morningglory; 500 g ai/ha, visual rating",0
same,Wheat plant response rating,wheat; 125 g ai/ha,0
same,Wheat plant response rating,wheat; 500 g ai/ha,0
same,Surinam Grass plant response rating (0 to 100 scale),Surinam grass; [7],0
same,"Plant response rating, Surinam Grass",Surinam grass; [9],10
same,Surinam Grass plant response rating,"Surinam grass; 125 g ai/ha, visual rating",0
same,Surinam Grass plant response rating,"Surinam grass; 500 g ai/ha, visual rating",10
same,"Sedge, Umbrella plant response rating",[3],80
same,Ducksalad plant response rating,ducksalad,40
same,"Foxtail, Giant plant response rating (0 to 100 scale)",giant foxtail; [7],0
same,"Plant response rating, Foxtail, Giant",giant foxtail; [9],10
same,"Foxtail, Giant plant response rating","giant foxtail; 125 g ai/ha, visual rating",0
same,"Foxtail, Giant plant response rating","giant foxtail; 500 g ai/ha, visual rating",10
same,Lambsquarters plant response rating (0 to 100 scale),lambsquarters; [7],0
same,"Plant response rating, Lambsquarters",lambsquarters; [9],70
same,Lambsquarters plant response rating,"lambsquarters; 125 g ai/ha, visual rating",10
same,Lambsquarters plant response rating,"lambsquarters; 500 g ai/ha, visual rating",20
same,Barnyardgrass plant response rating,barnyardgrass [4],0
same,Cocklebur plant response rating (0 to 100 scale),cocklebur; [7],0
same,"Plant response rating, Cocklebur",cocklebur; [9],0
same,Cocklebur plant response rating,"cocklebur; 125 g ai/ha, visual rating",0
same,Cocklebur plant response rating,"cocklebur; 500 g ai/ha, visual rating",10
same,Corn plant response rating (0 to 100 scale),corn; [7],0
same,"Plant response rating, Corn",corn; [9],0
same,Corn plant response rating,"corn; 125 g ai/ha, visual rating",10
same,Corn plant response rating,"corn; 500 g ai/ha, visual rating",10
same,Velvetleaf plant response rating (0 to 100 scale),velvetleaf; [7],0
same,"Plant response rating, Velvetleaf",velvetleaf; [9],0
same,Velvetleaf plant response rating,"velvetleaf; 125 g ai/ha, visual rating",0
same,Velvetleaf plant response rating,"velvetleaf; 500 g ai/ha, visual rating",0
same,Rice plant response rating,rice [5],0
same,"Crabgrass, Large plant response rating (0 to 100 scale)",large crabgrass; [7],20
same,"Plant response rating, Crabgrass, Large",large crabgrass; [9],100
same,"Crabgrass, Large plant response rating","large crabgrass; 125 g ai/ha, visual rating",10
same,"Crabgrass, Large plant response rating","large crabgrass; 500 g ai/ha, visual rating",10
same,Pigweed plant response rating (0 to 100 scale),pigweed; [7],0
same,"Plant response rating, Pigweed",pigweed; [9],100
same,Pigweed plant response rating,"pigweed; 125 g ai/ha, visual rating",10
same,Pigweed plant response rating,"pigweed; 500 g ai/ha, visual rating",10
